According to US20060058243A1, “Methods and compositions for treating diabetes mellitis” (priority 2002, published 2006):

How the values were obtained:
[1] = tested on: 3T3-L1 adipocytes; experiment: Glucose transport stimulatory (GTS) activity, 2-deoxy-D-[3H]glucose uptake; assay type: cell-based; conditions: 3T3-L1 adipocytes, FIG. 2
Description: (§1) PGG, either as a mixture or as single isomer (α or β), is added to either adipocytes (A) or preadipocytes (B). GTS activity (A) and AD activity (B) of PGG are measured by ^3H-glucose uptake. GLUT4 is not expressed in preadipocytes, so glucose uptake can be used as an indirect measurement of adipocyte differentiation.
Glucose uptake activity in cells may be analyzed by measuring the uptake of 2-deoxy-D-[^3H] glucose using a standard assay. Confluent 3T3-L1 adipocytes grown in 12-well plates are washed twice with serum-free DMEM and incubated with 1 mL of the same medium at 37° C. for 2 h. The cells are washed 3 times with Krebs-Ringer-Hepes (KRP) buffer and incubated with 0.9 mL KRP buffer at 37° C. for 30 min. […] Glucose uptake is initiated by addition of 0.1 mL KRP buffer and 37 MBq/L 2-deoxy-D-[^3H] glucose and 1 mmol/L glucose as final concentrations. After 10 min, glucose uptake is terminated by washing the cells 3 times with cold PBS. The cells are lysed with 0.7 mL of 1% Triton X-100 at 37° C. for 20 min. The radioactivity retained by the cell lysates is determined by a scintillation counter. The dosage that induces the maximal glucose uptake can be selected among the experimental samples.
3T3-L1 adipocytes were purchased from ATCC, and maintained and passed as preadipocytes in DMEM supplemented with 10% calf serum in a 37° C. incubator with 10% CO2 as required by the cells. The cells were induced to differentiate into adipocytes by addition of MDI induction cocktail as described in Liu, F., Kim, J., Li, Y., Liu, X., Li, J. & Chen, X. (2001) An extract of Lagerstroemia speciosa L. has insulin-like glucose uptake-stimulatory and adipocyte differentiation-inhibitory activities in 3T3-L1 cells. J. Nutrition 131:2242-224, which is specifically incorporated herein by reference. Varying amounts of α-PGG and β-PGG were then added to the medium and the amount of glucose taken up by control and treated cells determined using a standard glucose uptake assay, as described in Liu et al. As shown in FIG. 2A chemically synthesized and plant derived β-PGG have similar glucose transport stimulatory (GTS). The GTS activity of α-PGG is consistently 10-20% higher than that of β-PGG (FIG. 2).
Confluent 3T3-L1 adipocytes grown in 12-well plates were washed twice with serum-free DMEM and incubated with 1 mL of the same medium at 37° C. for 2 h. The cells were washed 3 times with Krebs-Ringer-Hepes (KRP) buffer and incubated with 0.9 mL KRP buffer at 37° C. for 30 min. Compounds listed in the table below were then added at 20-40 μM (final concentration?) and adipocytes were incubated at 37° C. for 15 min. Glucose uptake was initiated by addition of 0.1 mL KRP buffer and 37 MBq/L 2-deoxy-D-[3H] glucose and 1 mmol/L glucose as final concentrations. After 10 min, glucose uptake was terminated by washing the cells 3 times with cold PBS. The cells were lysed with 0.7 mL of 1% Triton X-100 at 37° C. for 20 min. The radioactivity retained by the cell lysates is determined by a scintillation counter.

[2] = tested on: 3T3-L1 preadipocytes; experiment: Adipocyte differentiation (AD) of preadipocytes, MDI induction, Oil Red O staining and glucose uptake; assay type: cell-based; conditions: about 10 days, 30 μM PGG, FIG. 8
Description: as §1
Ten days after induction, the cells were stained with Oil Red 0 and photographed at magnification X200. Only those cells that contain fat vesicles (triglyceride) can be stained.
After about 10 days MDI induces differentiation, which is clearly visible as the change from fibroblast-like preadipcytes to round-shaped, fat vesicle-containing adipocytes.
3T3-L1 adipocytes were purchased from ATCC, and maintained and passed as preadipocytes in DMEM supplemented with 10% calf serum in a 37° C. incubator with 10% CO2 as required by the cells. To test the effect of PGG on adipogenesis, the preadipocytes were incubated either with a differentiation-induction cocktail comprised of 3-isobutyl-1-methylxanthine, […], a cocktail comprised of 3-isobutyl-1-methylxanthine, dexamethasone (MD) and PGG; or with MDI plus PGG.
In order to study the mechanism by which PGG inhibits 3T3-L1 preadipocyte differentiation, we used gene expression studies. This strategy allows us to determine whether PGG specifically acts on genes that participate in the differentiation process. […] After about 10 days MDI induces differentiation, which is clearly visible as the change from fibroblast-like preadipcytes to round-shaped, fat vesicle-containing adipocytes (FIG. 8 middle).

[3] = tested on: 3T3-L1 preadipocytes; experiment: Clonal expansion / cell proliferation assay by LDH activity; assay type: cell-based
Description: Preadipocytes were induced to undergo clonal expansion by MDI, or α-PGG, or β-PGG in the presence of MDI. 24 or 48 hrs after induction, the media was removed and the cells were lysed. The […] (LDH) activity of the cell lysates was measured by LDH kit. Cell growth media were also collected and their LDH activity from dead cells was also measured (not shown on this graph). LDH activity is a constant per cell in a given cell type, the LDH activity measured is proportional to the number of cells in the samples.
A cell proliferation assay was used to determine if PGG inhibits adipocyte differentiation by blocking clonal expansion. […] The basis for the difference between the anomers in clonal expansion and differentiation is not known.

[4] = tested on: db/db mice; experiment: Blood glucose in fasting diabetic db/db mice after oral dose; assay type: in vivo; conditions: single oral dose 25 mg/kg body weight, versus vehicle, P<0.01, FIG. 11A
Description: (§2) FIG. 11. Effect of PGG on blood glucose levels in db/db and ob/ob mice. Various doses of α-PGG were orally delivered without glucose to db/db mice(A) or with glucose to ob/ob mice (B) mice. At different times post the delivery, glucose was determined in samples from tail blood.
Male db/db (leptin receptor deficient) mice of 8 weeks of age may be used to determine in vivo dosages for simulating glucose uptake The mice are divided into three to four groups depending upon how many dosages are analyzed. Ten μl of a test solution with pre-determined concentrations of the test gallotannin composition is orally administered to the test mice. The negative control mice receive the same amount of water. After the administration, blood is collected from the mouse tail at various times post oral administration. The blood glucose level of a mouse at a given time post administration is measured by applying six μl of blood on a One Touch Basic Complete Diabetes Monitoring System (from Lifescan). The effective dosage range and the optimal dosage can be determined by comparison of the reduction of blood glucose levels by different dosages relative to the glucose level of the negative (water) control group.
The reduction of the glucose level is about 15-20% depending on the time post α-pGG administration (P<0.01, FIG. 11A).

[5] = tested on: ob/ob mice; experiment: Glucose tolerance test in ob/ob mice; assay type: in vivo
Description: as §2
FIG. 12. PGG protects ob/ob mice from hyperglycemia immediately after glucose challenge and hypoglycemia several days after the challenge. At various time points after the glucose challenge, blood glucose levels were measured in tail blood.
To determine if α-PGG is also effective in improving glucose tolerance in diabetic and obese mice, a glucose tolerance test was performed using ob/ob mice. Glucose or glucose plus α-PGG were orally delivered into male ob/ob mice, and blood glucose levels were measured at various times post glucose/PGG administration.
A single high does of glucose in ob/ob mice can be fatal, either because of the very high levels of blood glucose levels […] after the glucose challenge or because of the abnormally low glucose levels 2-3 days after the glucose challenge. […] Although the protection mechanisms are unknown at this time, it is very likely that α-PGG protected the ob/ob mice not only by its GTS activity, but also some other activity such as AD-related activity.

[6] = tested on: ob/ob mice; experiment: Plasma insulin levels in ob/ob mice after intraperitoneal injection; assay type: in vivo; conditions: single intraperitoneal injection
Description: Diabetic and obese ob/ob mice were injected intraperitoneally with either water or α-PGG. Plasma from each mouse was isolated at various times post injection and was measured for insulin levels.

[7] = in the presence of MDI, FIG. 10

## O=C(OC[C@H]1O[C@H](OC(=O)c2cc(O)c(O)c(O)c2)[C@H](OC(=O)c2cc(O)c(O)c(O)c2)[C@@H](OC(=O)c2cc(O)c(O)c(O)c2)[C@@H]1OC(=O)c1cc(O)c(O)c(O)c1)c1cc(O)c(O)c(O)c1 [α-PGG, 1,2,3,4,6-penta-O-galloyl-α-D-glucose]
[1]
  GTS activity higher than that of β-PGG: 10-20%
[2]
  differentiation of preadipocytes treated with MDI plus compound: abolishes the differentiation
[3]; data not shown
  cell-killing compared to MDI induced cells: without significantly increased cell-killing
[3]; [7]
  first round of clonal expansion: not inhibited
  second round of clonal expansion: partially inhibited
[4]
  reduction of the blood glucose level: 15-20%
[5]; 2-5 days after challenge, FIG. 12
  protection from extremely low glucose levels after glucose challenge: protected these mice from suffering extremely low glucose levels
[5]; ob/ob mice, oral
  time after treatment at which improved blood glucose levels could still be observed: ≥ 24 h
[5]; oral glucose plus α-PGG, P<0.001, FIG. 11B
  blood glucose levels compared to glucose alone: significantly lower blood glucose levels
[6]
  plasma insulin levels versus water: significantly lower plasma insulin levels
